Test results from patent US8722850B2, “Self-assembling peptides and their use in the formation of hydrogels” (Universita' Degli Studi di Milano Bicocca, priority 2010, dated 2014).
“Also recorded” adds a separate entry of the source. Where a SMILES comes first, the peptide text is derived from it. The star is where a group is joined. Biotin = O=C1N[C@H]2[C@H](CS[C@H]2CCCCC(=O)*)N1

How the values were obtained:
[1] = tested on: human Neural Stem Cells (hNSCs); assay: Live/Dead cell imaging (calcein AM / ethidium homodimer); type: cell-based; conditions: cells cultured for 10 days
Procedure: In vitro tests were performed following a previously adopted methodology (5). Briefly, cells (at a concentration of 6×10^4 cells/cm^2) were seeded on the top-surface of each assembled scaffold previously assembled into 96 multiwells. Initially, cells were cultured with basal medium supplemented with βFGF (10 ng/ml), added to enhance neuronal progeny differentiation. At 3 days in vitro (DIV), βFGF medium was replaced with Leukemia Inhibitory Factor (LIF, Chemicon) (20 ng/ml) and Brain Derived Neurotrophic Factor (BDNF, Peprotech) (20 ng/ml). Fresh medium was added every three days. Positive and negative controls consisted of CULTREX-BME® substrate (R&D systems) (1:100 dilution in basal medium) and untreated bottom well surfaces respectively.
Live/Dead cell imaging (MolecularProbes) was obtained by incubating cells cultured for 10 days with a staining solution containing 2.0 μM calcein AM and 4.0 μM ethidium homodimer in PBS at 37° C. for 60 min and visualized by inverted fluorescence microscope (Zeiss).

spinal cord of rats [2] = assay: In vivo toxicity / biocompatibility, injections into the spinal cord, 3 days; conditions: three days after injection, versus saline
Procedure: (§1) To test if the SAPs according to the present invention show any toxicity when used in vivo we assessed the tissue reaction to multiple injections of B24 into the spinal cord of rats. All procedures involving animals were performed according to EC guidelines (EC Council Directive 86/609, 1987), to the Italian legislation on animal is experimentation (Decreto L. vo 116/92) and to protocols approved by the Animal Care and Use Committee of the University of Milan-Bicocca (IACUC 37/07).
Female Sprague-Dawley rats weighting 200-250 gr (Charles River Laboratories) were divided into two groups: 1) animals receiving injections of saline solution (control group, n=3) and 2) animals treated with B24 (n=3). In the case of long term observations (1 month) similar injections of B24 were used (n=2). Rats were anesthetized with an intraperitoneal injection of ketamine (80 mg/kg) and xylazine (10 mg/kg). The spinal cord was exposed at the T9-T10 level, and, after laminectomy, animals were injected with B24 (1% aqueous solution) or saline solution using a Hamilton syringe held via a micromanipulator. The solutions were delivered at distances of 500 μm, and two injections of 0.5 μl each were made at each interval, for a total dose of 3 μl. After injection, the muscles were sutured and the skin was closed with wound clips. Rats were treated daily with analgesic (carprofen, 5 mg/kg) and antibiotic (enrofloxacin, 5 mg/kg). 3 days after surgery (for toxicity tests) or 1 month after surgery (nervous regeneration tests) animals were sacrificed by transcardial perfusion with 4% paraformaldehyde. Spinal cords were removed, embedded in OCT, frozen and sliced into 16 μm thick longitudinal sections. For immunofluorescence analysis slices were permeabilized and blocked with PBS/0.3% TritonX-100/10% Normal Goat Serum (NGS) for 1 hour at room temperature. […]

spinal cord of rats [3] = assay: In vivo nervous regeneration test, spinal cord injections, 1 month; conditions: one month after injections
Procedure: as §1
Female Sprague-Dawley rats weighting 200-250 gr (Charles River Laboratories) were divided into two groups: 1) animals receiving injections of saline solution (control group, n=3) and 2) animals treated with B24 (n=3). In the case of long term observations (1 month) similar injections of B24 were used (n=2). Rats were anesthetized with an intraperitoneal injection of ketamine (80 mg/kg) and xylazine (10 mg/kg). The spinal cord was exposed at the T9-T10 level, and, after laminectomy, animals were injected with B24 (1% aqueous solution) or saline solution using a Hamilton syringe held via a micromanipulator. The solutions were delivered at distances of 500 μm, and two injections of 0.5 μl each were made at each interval, for a total dose of 3 μl. After injection, the muscles were sutured and the skin was closed with wound clips. […]

Row | SMILES | live/dead cell imaging [1] | apoptotic cells (Tunel) (spinal cord of rats [2]) | infiltrated macrophages (CD68) (spinal cord of rats [2]) | neurofilament H dephosphorilated (degenerating) nervous fibers (spinal cord of rats [2]) | chronic inflammation in the spinal cord (spinal cord of rats [3])
1 | C[C@@H](O)[C@H](NC(=O)[C@H](CCCNC(=N)N)NC(=O)[C@@H](NC(=O)[C@H](CO)NC(=O)[C@H](CO)NC(=O)[C@H](Cc1ccccc1)NC(=O)[C@@H]1CCCN1C(=O)CNC(=O)CNC(=O)CNC(=O)CCCC[C@@H]1SC[C@@H]2NC(=O)N[C@@H]21)[C@@H](C)O)C(N)=O [B22] (Biotin-GGGPFSSTRT-NH2) | clamped in poorly branched aggregates; also recorded: bipolar cells |  |  |  | 
2 | C[C@H](NC(=O)CNC(=O)CNC(=O)CNC(=O)CCCC[C@@H]1SC[C@@H]2NC(=O)N[C@@H]21)C(=O)N[C@@H](Cc1ccccc1)C(=O)N[C@@H](C)C(=O)N[C@@H](CO)C(=O)N[C@H](C(=O)N[C@@H](CCCCN)C(=O)N[C@H](C(N)=O)[C@@H](C)O)[C@@H](C)O [peptide B24] (Biotin-GGGAFASTKT-NH2) | distributed throughout the gel top surface; also recorded: a layer of widely branched cells | negligible number | negligible number | equally present in saline-injected and in B24-treated animals | did not exert any chronic inflammation
